PubChem BioAssay AID730 (The Scripps Research Institute Molecular Screening Center, 2007)
The source made the active and inactive calls.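 How the source made its calls: active means EC50 at or below 10 micromolar, taken from the curve fit or judged by hand from the single doses; inactive means EC50 above 10 micromolar.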

Biological target: CHO S1P3/Ga15 NFAT-beta-lactamase reporter, FRET fluorescence
Assay: nonspecific agonism in S1P3 NFAT-BLA cells – counter-screen for 5HT1E agonist project, dose response (AID 730)

Row | EC50 | SMILES
1 | > 40 µM (inactive) | Cn1cc(/C(Cc2ccccc2)=N\O)c2ccccc21
2 | > 40 µM (inactive) | CN1CCN(/C(=N\O)c2nonc2N)CC1
3 | > 40 µM (inactive) | CCOC(=O)C1=C(C)NC(=O)NC1c1ccc(OCC(=O)Nc2ccccc2)c(OC)c1 (stereo not drawn)
